In brackets after ≈: the same amount, converted by molar mass. Read-outs that look alike come from different tables or passages of the source. Square brackets hold non-standard residues; d marks the D form. Peptide text beside a SMILES is read from it. Nspe = C[C@H](NCC(=O)O)c1ccccc1; NDecylGly = CCCCCCCCCCNCC(=O)O; Nlys = NCCCCNCC(=O)O
Columns and labels:
[1] = system: C. auris CBS12373 biofilm; assay: Initial biofilm inhibition, crystal violet assay; format: cell-based, Candida auris; details: crystal violet staining
Experimental: (§1) Another set of experiments was conducted under similar conditions similar to those used for MTT assay.

C. auris strains = system: C. auris strains
Experimental: (§2) Briefly, bacteria were suspended in cation-adjusted Mueller–Hinton broth (CAMHB; Oxoid, UK) for antibiotics, or MHB (Oxoid, UK) for peptidomimetics to obtain 5 × 10^5 colony forming unit (CFU) ml^−1. […] Positive controls contained only microbes, and blanks contained only media. Microbial suspensions (100 µl) were added to wells, plates wrapped, and incubated at 37°C, 120 rpm for 16–20 h. After incubation, suspensions were removed, log10 diluted, and plated on Trypticase Soya Agar with phosphatidylcholine and Tween 80 to determine minimum bactericidal or fungicidal concentration (MBC or MFC). […] Geometric mean MIC of the peptoids were calculated to evaluate the broad overview of antimicrobial activity across the pathogens.
(§3) The therapeutic indices (TIs) of the compounds were calculated with the use of following formula: […]

[2] = system: horse red blood cells (RBCs); assay: Haemolysis assay; format: cell-based
Experimental: The haemolytic activity of the peptidomimetics was performed to determine mammalian cell safety. This assay used horse red blood cells (RBCs) (Sigma–Aldrich, USA) as described previously (Willcox et al. [2008], Chongsiriwatana et al. [2017], Yasir et al. [2019b]). RBCs were washed three times with PBS at 470 g for 5 min. Peptoids (0.5–250 μg ml^−1) were prepared in PBS and added to washed RBCs, then incubated at 37°C for 4 h. After incubation, cells were centrifuged at 1057 g for 10 min, and the supernatant’s OD at 540 nm was measured for lysis. PBS-only RBCs served as the negative control (no haemolysis), and Milli-Q water-treated RBCs as the positive control (100% lysis). Percent haemolysis was calculated as: (ODT − ODNC)/(ODPC − ODNC) × 100, where ODT, ODNC, and ODPC are the absorbances of the test, negative, and positive controls, respectively. This experiment was performed in triplicate.

C. auris CBS 10913 = assay: microbe, parasite or virus in culture; format: cell-based, Candida auris; details: CBS 10913, 48 h
Experimental: Amphotericin B was tested in parallel as a positive control (Ramesh et al. [2023]).

[3] = system: Gram-positive bacteria (Enteroc. faecalis and S. aureus)
Procedure, shortened: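 Broth microdilution with 5 × 10^5 CFU/ml inoculum in cation-adjusted Mueller–Hinton broth for antibiotics or MHB for peptidomimetics; 16–20 h at 37°C, 120 rpm. MBC/MFC by plating on Trypticase Soya Agar with phosphatidylcholine and Tween 80; geometric mean MIC calculated across pathogens.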

[4] = system: S. aureus, K. pneumoniae, P. aeruginosa, and En. cloacae biofilm; details: ref Nielsen et al. [2022]; cited from earlier work
Text: Another way microbes can acquire tolerance and become resistant to antimicrobials is by the production of biofilms. In biofilms, microbes switch from planktonic state to sessile form, where they are encased in an extracellular polymeric substance matrix, thereby being protected from stressful environmental conditions (Di Fermo et al. [2024]). Most ESKAPEE pathogens and C. auris form antimicrobial tolerant biofilms associated with device-associated infections (Kean and Ramage [2019], Sarkar et al. [2024]). The antibiofilm activity of some of these peptoids has already been studied against ESKAP ...

C. auris CBS10913 [5] = assay: Membrane integrity by flow cytometry (SYTO 9 / PI); format: cell-based, Candida auris
Experimental: Afterwards, the cells were stained with SYTO 9 (7.5 µmol l^−1) and PI (30 µmol l^−1) for an additional 15 min in the dark at room temperature. Following washing, samples were then analysed for membrane integrity on a BD FACSymphony^TM A3, with a minimum of 10 000 events recorded per sample.

C. auris CBS10913 [6] = system: C. auris CBS10913
[7] = system: C. auris CBS12373 biofilm; format: cell-based, Candida auris
Experimental: as §1

[8] = system: ESKAPEE pathogens (all bacteria); assay: Geometric mean MIC, therapeutic index and selectivity ratio, all bacteria; format: cell-based; details: across the 23 ESKAPEE strains
Experimental: as §2, §3

Enterobacteriaceae = assay: Geometric mean MIC, therapeutic index and selectivity ratio, Enterobacteriaceae; format: cell-based; details: Enterobacteriaceae (E. coli, K. pneumoniae, and E. aerogenes)
Experimental: as §2, §3

MDR ESKAPE pathogens = details: ref Nielsen et al. [2022]; cited from earlier work
Text: TM8, TM15, and TM19 featured terminal alkyl tails of either N-decyl or N-tridecyl, while all of them contained chiral aromatic Nspe along with NLys residues. Similarly, TM2, TM4, TM12, TM14, and TM19 w ... || Lipopeptoids can self-assemble into micellar macromolecules due to the hydrophobic tail domains driven by the intermolecular hydrophobic interactions. […] In a ...

MBL-producing bacteria = assay: Geometric mean MIC, therapeutic index and selectivity ratio, MBL-producing bacteria; format: cell-based
Experimental: as §2
The test was performed as per the manufacturer’s instructions. Briefly, the strips were applied to a lawn culture of bacteria maintained at 1.5 × 10^8 CFU ml^−1 on Mueller–Hinton agar (Oxoid, UK) and incubated for 20 h at 37°C.
as §3

[9] = as low as; ref Nielsen et al. [2022]; cited from earlier work
Text: Lipopeptoids can self-assemble into micellar macromolecules due to the hydrophobic tail domains driven by the intermolecular hydrophobic interactions. […] In a ...

[10] = system: C. auris CBS12373 biofilm; assay: Anti-adherence (biofilm prevention), MTT reduction assay; format: cell-based, Candida auris
Experimental: Finally, 3-(4,5-Dimethylthiazol 2-yl)-2,5-diphenyltetrazolium bromide (MTT) reduction assay was performed to observe the metabolic activities of C. auris.

[11] = system: MBL phenotypes of A. baumannii; details: MBL phenotypes of
Experimental: Briefly, bacteria were suspended in cation-adjusted Mueller–Hinton broth (CAMHB; Oxoid, UK) for antibiotics, or MHB (Oxoid, UK) for peptidomimetics to obtain 5 × 10^5 colony forming unit (CFU) ml^−1. […] Positive controls contained only microbes, and blanks contained only media. Microbial suspensions (100 µl) were added to wells, plates wrapped, and incubated at 37°C, 120 rpm for 16–20 h. […] Geometric mean MIC of the peptoids were calculated to evaluate the broad overview of antimicrobial activity across the pathogens.

[12] = system: C. auris CBS12373 biofilm; assay: Initial biofilm inhibition, MTT reduction assay; format: cell-based, Candida auris

Structure (SMILES): CCCCCCCCCCNCC(=O)N(CCCCN)CC(=O)N(CC(=O)N(CC(=O)N(CCCCN)CC(=O)N(CC(=O)N(CC(N)=O)[C@@H](C)c1ccccc1)[C@@H](C)c1ccccc1)[C@@H](C)c1ccccc1)[C@@H](C)c1ccccc1 [TM8] (H-[NDecylGly][Nlys][Nspe][Nspe][Nlys][Nspe][Nspe]-NH2)
- MBIC for initial biofilm [1]: 31.25 µg/mL
- MIC against both C. auris strains (C. auris strains; strains): < 10 µg/mL
- Geometric mean MICCA (C. auris strains; two C. auris strains): 5.5 µg/mL
- HD10 (10% haemolytic dose) [2]: 7.2 µmol/L
- HD50 (50% haemolytic dose) [2]: 24.4 µmol/L
- HD10 (10% haemolytic dose) ([2]; red cells of horse, 4 h): 8 µg/mL
- HD50 (50% haemolytic dose) ([2]; red cells of horse, 4 h): 27.2 µg/mL
- MIC in the absence of ergosterol (C. auris CBS 10913): 7.8 µg/mL
- MIC in the presence of exogenous ergosterol (C. auris CBS 10913): 31.25 µg/mL
- MIC range [3]: 3.9 to 7.8 µg/mL
- Concentration with significant inhibition of biofilm formation [4]: 1.56 µg/mL
- Dead cells (C. auris CBS10913 [5]; TM8 at its MIC or 1% Triton X-100, 90 min, PBS control 0.2%): 3.9%
- SYTO 9 fluorescent signal of C. auris (C. auris CBS10913 [5]; TM8 at its MIC, 90 min, 37°C, PBS, PBS control 51.7%): 25.5%
- Cells doubly stained with SYTO 9 and PI (C. auris CBS10913 [5]; TM8 at its MIC, 90 min, PBS control 0.7%): 21.5%
- MIC against C. auris (C. auris CBS10913 [6]; CBS 10 913, RPMI 1640 with MOPS, 5 × 10^3 CFU ml^−1, ≥90% reduction (≥50% for fluconazole)): 7.8 µg/mL
- MIC against C. auris (C. auris CBS10913 [6]; CBS10913): 7.0 µM
- MIC at high cell density (C. auris CBS10913 [6]; CBS10913): 15.6 µg/mL (≈ 14 µM)
- MBEC for mature biofilm [7]: 125 µg/mL
- Geometric mean MIC, all bacteria [8]: 7.3 µg/mL
- Geometric mean MIC, all bacteria ([8]; value in brackets): 6.6 µM
- Geometric mean MICE (Enterobacteriaceae): 11.0 µg/mL
- MIC against MDR ESKAPE pathogens (MDR ESKAPE pathogens): < 13 µg/mL
- Geometric mean MICMBL (MBL-producing bacteria): 7.8 µg/mL
- Concentration at which self-assembly into an ellipsoidal form is found [9]: 1000 ng/mL
- Biofilm tolerance factor-prevention (BPC/MIC) [10]: 8
- Anti-adherence (BPC) ([10]; 2 h adhesion with agent, 48 h growth, ≥90% reduction): 125 µg/mL
- MIC [11]: ≤ 7.8 µg/mL
- Biofilm tolerance factor-inhibition (MBIC/MIC) [12]: 2

Source: article PMC11879280, “Antimicrobial activity of peptoids against Metallo-β-lactamase-producing Klebsiella pneumoniae, Acinetobacter baumannii, Pseudomonas aeruginosa, and other WHO priority pathogens, including Candida auris” (Journal of Applied Microbiology, 2025)
